Test results taken from publication PMC6672714 (Frontiers in Physiology, 2019).
Entries after “also recorded” stand apart in the source; their conditions may differ. No end group written: not given here.

Columns and labels:
[1] = test system: rat GH3 cells (CART mRNA); parameters: method as in Barrett et al., 2001; conditions: ref Barrett et al., 2001; cited from earlier work
[2] = test system: cultured chick pituitary cells (GnRH1-induced CART mRNA); format: cell-based, chicken; conditions: H89 10 μM; GnRH1 10 nM, 24 h; N = 4
Protocol: (§1) As described in our recent studies ([Huang et al., 2014]; [Mo et al., 2015]), anterior pituitaries collected from 1-week-old chicks were sliced and digested by 0.25% trypsin at 37°C for 20 min. The dispersed pituitary cells were cultured at a density of 5 × 10^5 cells/well in Medium 199 supplemented with 15% fetal bovine serum in a Corning Cell BIND 48-well plates (Corning, Tewksbury, MA) at 37°C with 5% CO2. After 24-h culture, the medium was replaced with serum-free M199 medium and the cells were treated with chicken GnRH1/GnRH2 for the duration (12–48 h) or with increasing doses (0.1–100 nM) of each peptide. The total RNA was then extracted from cultured pituitary cells and the expression of CART and β-actin assayed by qPCR.
(§2) “ND” indicates no statistical difference between the two groups. Each data point represents mean ± SEM of four replicates (N = 4). ^**p < 0.01 vs. control; ^#p < 0.01 vs. GnRH1 treatment (in the absence of drug). […] Total ERK2 in cell lysates was also examined and used as internal controls. Note: only a single band for pERK2 or total ERK2 (42 kDa) was detected in cell lysate, because ERK1 gene is lost in chicken genome ([Gerilechaogetu et al., 2009]). The representative sets of independent experimental duplicates are shown here.
(§3) “ND” indicates no statistical difference between the two groups. Each data point represents mean ± SEM of four replicates (N = 4). ^**p < 0.01 vs. control. […] The β-actin in cell lysates were also examined and used as internal controls. The representative sets of independent experimental duplicates are shown here.

[3] = test system: cultured chick pituitary cells (CART mRNA); experiment: CART mRNA expression in cultured chick pituitary cells, qPCR; format: cell-based, chicken; conditions: N = 4
Description: Chicken anterior pituitaries were collected either for cell culture, or for total RNA extraction. Total RNA was extracted from chicken tissues or cultured pituitary cells using RNAzol (Molecular Research Center, Cincinnati, OH) and reversely transcribed using M-MLV reverse transcriptase (TaKaRa). Reverse transcription (RT) samples were then used for quantitative real-time PCR (qPCR) assays to investigate the mRNA expression of target genes, as described in our recent studies ([Cai et al., 2015]; [Mo et al., 2015]).
as §1
The data were analyzed by the Student’s t-test (between two groups) or by one-way ANOVA followed by the Dunnett test in GraphPad Prism 5 (GraphPad Software, San Diego, CA). To validate our results, all experiments were repeated at least three times.
The mRNA levels of CART were normalized by β-actin and expressed as the percentage of respective controls. Each value represents the mean ± SEM of four replicates (N = 4). ^*p < 0.05, ^**p < 0.01 vs. respective control. (E) RT-PCR detection of GnRHR2 expression in cultured chick pituitary cells (three replicates). RT was performed in the presence (+) or absence (−) of reverse transcriptase. Parallel PCR of β-actin was performed to serve as an internal control.

[4] = test system: ovine pars tuberalis cells (CART mRNA); parameters: method as in Barrett et al., 2001; conditions: ref Barrett et al., 2001; cited from earlier work
rats (plasma CART) = test system: rats (plasma CART); parameters: method as in Stanley et al., 2004; conditions: intraperitoneal administration, ref Stanley et al., 2004; cited from earlier work
[5] = test system: cultured chick pituitary cells (CART mRNA); parameters: method as in Mo et al., 2015; conditions: chickens; ref Mo et al., 2015; cited from earlier work
[6] = test system: intact anterior pituitaries (CART secretion); experiment: CART peptide secretion from intact anterior pituitaries incubated in vitro, Western blot; format: cell-based, chicken; conditions: 4 h, intact chick pituitaries, N = 3; for secretion of mature CART peptide: 0–100 nM
Protocol: As described in our recent study ([Huang et al., 2014]), the intact anterior pituitaries collected from 1-week-old male chicks were washed with PBS and placed on a 48-well plate (NUNC) supplemented with 400 μl serum-free Medium 199 (Invitrogen). After 1-h incubation at 37°C, the medium was replaced by 300 μl serum-free Medium 199 containing different concentrations of chicken GnRH1 or GnRH2 (0.1–100 nM) and incubated for 4 h. […] Parallel blotting of β-actin and CART in pituitary tissue lysates was also conducted.
The intracellular CART (iCART) and β-actin levels in the pituitary tissue lysate were also examined in parallel. […] Each data point represents mean ± SEM of three replicates (N = 3). ^*p < 0.05; ^**p < 0.01 vs. respective control. […] One representative set of Western blot is shown at the top of each graph.

chicken GnRHR2 [7] = experiment: pGL4-SRE-luciferase reporter, MAPK/ERK signaling pathway, CHO cells expressing chicken GnRHR2; format: cell-based; conditions: four replicates
Description: (§4) Based on the reported cDNA sequences of chicken GnRHR1 and GnRHR2 (accession nos.: NM_204653; NM_001012609) ([Sun et al., 2001]; [Shimizu and Bedecarrats, 2006]), gene-specific primers were used to amplify the open reading frame from adult chicken anterior pituitaries using high-fidelity Taq DNA polymerase (TOYOBO, Japan). The amplified PCR products were cloned into the pcDNA3.1 (+) expression vector (Invitrogen) and sequenced. According to our previously established methods, the signaling property of each receptor was examined in Chinese hamster ovary (CHO) cells using pGL3-NFAT-RE-luciferase ([Wang et al., 2012]), pGL4-SRE-luciferase ([Mo et al., 2015]), and pGL3-CRE-luciferase reporter systems ([Wang et al., 2007]).
(§5) Although two GnRH receptors (GnRHR1 and GnRHR2) have been identified in chickens ([Sun et al., 2001]; [Shimizu and Bedecarrats, 2006]; [Joseph et al., 2009]), their downstream signaling pathways have not been fully characterized.
(§6) Figure 5 Activation of chicken GnRHR1 or GnRHR2 expressed in CHO cells by chicken GnRH1 or GnRH2, monitored by pGL3-NFAT-RE-luciferase (A,D), pGL4-SRE-luciferase (B,E), and pGL3-CRE-luciferease (C,F) reporter systems. […] Each data point represents mean ± SEM of four replicates (N = 4).

chicken GnRHR1 [8] = experiment: pGL3-CRE-luciferase reporter, cAMP/PKA signaling pathway, CHO cells expressing chicken GnRHR1; format: cell-based; conditions: four replicates
Description: as §4, §5, §6

chicken GnRHR2 [9] = experiment: pGL3-CRE-luciferase reporter, cAMP/PKA signaling pathway, CHO cells expressing chicken GnRHR2; format: cell-based; conditions: four replicates
Description: as §4, §5, §6

CREB phosphorylation = CREB phosphorylation in cultured chick pituitary cells, Western blot; format: cell-based, chicken; conditions: 10 nM, 5 min, duplicates
Description: as §3

chicken GnRHR1 [10] = experiment: pGL4-SRE-luciferase reporter, MAPK/ERK signaling pathway, CHO cells expressing chicken GnRHR1; format: cell-based; conditions: four replicates
Description: as §4, §5, §6

ERK2 phosphorylation = ERK2 phosphorylation in cultured chick pituitary cells, Western blot; format: cell-based, chicken; conditions: 10 nM, 10 min, duplicates
Description: as §2

chicken GnRHR2 [11] = experiment: pGL3-NFAT-RE-luciferase reporter, calcium signaling pathway, CHO cells expressing chicken GnRHR2; format: cell-based; conditions: four replicates
Description: as §4, §5, §6

chicken GnRHR1 [12] = experiment: pGL3-NFAT-RE-luciferase reporter, calcium signaling pathway, CHO cells expressing chicken GnRHR1; format: cell-based; conditions: four replicates
Description: as §4, §5, §6

chicken GnRHR1 [13] = experiment: three cell-based luciferase reporter assays, GnRHR1 (qualitative); conditions: GnRHR1, CHO cells, calcium, MAPK/ERK and cAMP/PKA reporters
Description: as §4, §5, §6

chicken GnRHR2 [14] = experiment: three cell-based luciferase reporter assays, GnRHR2 (qualitative); conditions: for activation of GnRHR2 (luciferase activity): GnRHR2, CHO cells, calcium, MAPK/ERK and cAMP/PKA reporters
Description: as §4, §5, §6

chicks (plasma CART) = experiment: plasma CART levels after intraperitoneal administration in chicks, ELISA; format: in vivo, chicken; conditions: 5 μg/chick, 30 min, male chicks
Protocol: The levels of CART peptide in chicken plasma was then determined by competitive ELISA assay.
Each data point represents mean ± SEM of seven 19-day-old male individuals (N = 7). ^*p < 0.05 vs. saline (control).

[15] = test system: rat pituitary (CART secretion); parameters: method as in Kappeler et al., 2006; conditions: rat pituitary upon perfusion; ref Kappeler et al., 2006; cited from earlier work

| Compound | secretion of mature CART peptide [6] | minimal effective concentration, CART secretion [6] [nM] | EC50 (chicken GnRHR2 [7]) [nM] | EC50 (chicken GnRHR1 [8]) [nM] | EC50 (chicken GnRHR2 [9]) [nM] | EC50 (chicken GnRHR1 [10]) [nM] | EC50 (chicken GnRHR2 [11]) [nM] | EC50 (chicken GnRHR1 [12]) [nM] | activation of GnRHR1 (luciferase activity) (chicken GnRHR1 [13]) | activation of GnRHR2 (luciferase activity) (chicken GnRHR2 [14]) | also measured |
| --- | --- | --- | --- | --- | --- | --- | --- | --- | --- | --- | --- |
| O=S(=O)(NCCNC/C=C/c1ccc(Br)cc1)c1cccc2cnccc12 [H89] | – | – | – | – | – | – | – | – | – | – | effect on AC activator- or cAMP analog-stimulated CART mRNA levels [1]: abolished; effect on GnRH1-induced CART mRNA expression [2]: could abolish GnRH1-induced CART expression |
| CCCCCCCCCCCCCC(=O)O[C@@H]1[C@@H](C)[C@@]2(O)[C@@H](C=C(CO)C[C@]3(O)C(=O)C(C)=C[C@@H]23)[C@@H]2C(C)(C)[C@]12OC(C)=O [PMA, phorbol-12-myristate-13-acetate, reference compound] | – | – | – | – | – | – | – | – | – | – | effect on CART mRNA expression ([3]; PMA 100 nM, 48 h): could mimic GnRH1 action; CART mRNA expression [4]: enhances CART mRNA expression |
| CRH: corticotropin-releasing hormone, hypothalamic factor (literature results only) | – | – | – | – | – | – | – | – | – | – | plasma CART levels (rats (plasma CART)): increase plasma CART levels in rats; potency as stimulator of pituitary CART secretion and expression [5]: potent stimulator of pituitary CART secretion and expression |
| GnRH1: chicken gonadotropin-releasing hormone 1, synthesized using solid-phase Fmoc chemistry; an ortholog of mammalian GnRH (QHWSYGLQPG; ends and bridges not checked; UniProt P37042 24-33, looked up) | potently stimulated the secretion of mature CART peptide | 1 | 29.9 | 69.3 | 2.15 | 270 | 1.54 | 11.3 | stimulate the luciferase activities dose-dependently | stimulate the luciferase activities dose-dependently; also recorded: potently activated by both GnRH1 and GnRH2 | CREB phosphorylation (CREB phosphorylation): could enhance CREB phosphorylation; effect on CART mRNA expression, dose dependence ([3]; 0–100 nM, 48 h, qPCR): stimulate CART expression dose-dependently; treatment time of maximal effect on CART mRNA expression ([3]; 10 nM, qPCR): 48 h; effect on CART mRNA expression ([3]; 10 nM, time course (12–48 h), qPCR): induce CART expression in a time-dependent manner; minimal effective dose, CART mRNA expression ([3]; 48 h, qPCR): 1 nM; ERK2 phosphorylation (ERK2 phosphorylation): could enhance ERK2 phosphorylation; increase in plasma CART levels vs saline (chicks (plasma CART); N = 7, p < 0.05): two-fold; plasma CART level (chicks (plasma CART); N = 7, saline control 1.3 ng/ml, p < 0.05): 2.7 ng/mL |
| GnRH2: chicken gonadotropin-releasing hormone 2, synthesized using solid-phase Fmoc chemistry (QHWSHGWYPG; not fully specified; ends and bridges not checked; UniProt P68072 1-10, looked up) | potently stimulated the secretion of mature CART peptide | 1 | 2.84 | 0.69 | 0.27 | 3.1 | 0.26 | 0.39 | stimulate the luciferase activities dose-dependently; also recorded: potently activated by GnRH2 | stimulate the luciferase activities dose-dependently; also recorded: potently activated by both GnRH1 and GnRH2 | effect on CART mRNA expression, time and dose dependence ([3]; 10 nM time course or 0–100 nM for 48 h, qPCR): induce CART expression in time- and dose-dependent manners; relative potency at GnRHR2 (chicken GnRHR2 [14]; GnRH2 compared with GnRH1, GnRHR2, CHO cells): slightly more potent than GnRH1 |
| GnRH: GnRH perfused on rat pituitary in a previous study (form not specified) (QHWSYGLRPG; ends and bridges not checked; UniProt P07490 24-33, looked up) | – | – | – | – | – | – | – | – | – | – | CART secretion [15]: CART secretion is induced |
